Consider one compound from ChEMBL document CHEMBL5247665, “Improved synthesis and anticancer activity of a potent neuronal nitric oxide synthase inhibitor” (Bioorg Med Chem Lett, 2023).

The data set can be described thus: Toxicity in mouse at 10 mg/kg measured after 21 days. Format: organism-based. The note with it: in vivo, 504 h, time 21 day.

In the case of `CNCc1cccc(CCc2ccc3c(C)cc(N)nc3c2)c1.Cl.Cl`, the Activity result is recorded as “Non-Toxic”.
